Earlier results in US9630918B2, “Cysteine, N-acetylcysteine, and penicillamine related compounds, pharmaceutical compositions thereof, and methods of use” (priority 2015, dated 2017).

What was measured:
[1] = not given; remark: listed apart in the source
stable COPD = conditions: patients with stable COPD, clinical study

Row | SMILES | interpatient oral variability | oral bioavailability [1] | exacerbation frequency (stable COPD) | small airways function (stable COPD)
1 | CC(C)(S)[C@@H](N)C(=O)O [D-penicillamine, D-Penicillamine] | high degree of interpatient oral variability | – | – | –
2 | CC(=O)N[C@@H](CS)C(=O)O [NAC, N-Acetyl-L-cysteine] | – | 4-10% | decrease exacerbation frequency | improve small airways function
